Assay results taken from patent publication EP1156056A1, “5-GLYCOSYLOXY-6-HYDROXYNAPHTHO 2,3-f]QUINOLINE-7,12-DIONE HAVING ANTICANCER ACTIVITIES” (ZAIDAN HOJIN BISEIBUTSU KAGAKU KENKYU KAI, priority 1999, dated 2000).
Converted amounts (≈) assume the structure as drawn. Where two headings read alike, the source gives them in different places.

How the values were obtained:
Type in all cases: cell-based
[1] = system: human acute promyeloleukemia (HL60); assay: Inhibition of proliferation of cancer cells in culture (Test Examples 1 and 3)
Method: (§1) A culture medium for cancer cells was put into test tubes. To the culture medium in each tube, there was transplanted each of such various mouse cancer cells or human cancer cells as shown in Table 1 below. The cells so transplanted were cultivated under the conditions at 37°C in an air atmosphere containing 5 % CO2. To the medium containing the cancer cells so cultivated, there was added said Compounds A, B, D, E or F of this invention at different concentrations, as the test compound. […] As the comparative compound, adriamycin now clinically used was tested to repeat the test in the same way.
(§2) Namely, they are mouse colon cancer (colon 26), mouse B-cell lymphoma (LB32T), mouse lymphoma (L-1210), human cervical cancer (HeLa), human acute promyeloleukemia (HL60), human prostatic cancer (PC3), human pudendal squamous cell carcinoma (A431), human pulmonary carcinoma (PC6), human mastocarcinoma (MCF7), human esophageal carcinoma (TT), human prostatic cancer (LNcap) and human colon cancer (DLD-1).
(§3) The test method and the nature of cancer cells to be tested are the same as those in Test Example 1 given hereinbefore. In this Test Example 3, however, eight kinds of cancer cells indicated in Table 3 below are used, among the twelve kinds of cancer cells which were used in Test Example 1.
(§4) As the test results of measurement, the evaluated values of the concentration of each test compound which could inhibit the proliferation of cancer cells by 50 % (namely, 50 % inhibitory concentration:IC50, µg/ml) are given in Table 3.

[2] = system: human prostatic cancer (PC3); assay: as above; conditions: for IC50: Homo sapiens
Method: as §1, §2, §3, §4

[3] = system: human cervical cancer (HeLa); assay: as above
Method: as §1, §2, §3, §4

[4] = system: human colon cancer (DLD-1); assay: as above; conditions: for IC50: Homo sapiens
Method: as §1, §2, §3, §4

[5] = system: human prostatic cancer (LNcap); assay: as above
Method: as §1, §2, §3, §4

[6] = system: human pulmonary carcinoma (PC6); assay: Inhibition of proliferation of cancer cells in culture (Test Example 1); conditions: 72 hours cultivation, read-out: Concentration of test compound to inhibit the proliferation of cancer cells by 50 %
Method: as §1, §2

[7] = system: human mastocarcinoma (MCF7); assay: as above; conditions: 72 hours cultivation, read-out: Concentration of test compound to inhibit the proliferation of cancer cells by 50 %
Method: as §1, §2

[8] = system: human esophageal carcinoma (TT); assay: as above; conditions: 72 hours cultivation, read-out: Concentration of test compound to inhibit the proliferation of cancer cells by 50 %
Method: as §1, §2

[9] = system: human pudendal squamous cell carcinoma (A431); assay: as above; conditions: A-431, 72 hours cultivation, read-out: Concentration of test compound to inhibit the proliferation of cancer cells by 50 %
Method: as §1, §2

mouse lymphoma (L-1210) = assay: Inhibition of proliferation of cancer cells in culture (Test Examples 1 and 3); conditions: L1210, Test Example 3, Compounds N to T used as trifluoroacetate, read-out: IC50
Method: as §1, §2, §3, §4

[10] = system: mouse colon cancer (colon 26); assay: as above; conditions: Colon26, Test Example 3, Compounds N to T used as trifluoroacetate, read-out: IC50
Method: as §1, §2, §3, §4

[11] = system: mouse B-cell lymphoma (LB32T); assay: as above; conditions: Test Example 3, Compounds N to T used as trifluoroacetate, read-out: IC50
Method: as §1, §2, §3, §4

[12] = 72 hours cultivation, Test Example 1, read-out: Concentration of test compound to inhibit the proliferation of cancer cells by 50 %, IC50
[13] = Test Example 1, relative to adriamycin
[14] = HL-60, Test Example 3, Compounds N to T used as trifluoroacetate, read-out: IC50
[15] = Test Example 3, Compounds N to T used as trifluoroacetate, read-out: IC50
[16] = LNCap, Test Example 3, Compounds N to T used as trifluoroacetate, read-out: IC50
[17] = Test Example 3, relative to adriamycin

SMILES	IC50 [1, 14]	IC50 [2, 15]	IC50 [3, 15]	IC50 [4, 15]	IC50 [5, 16]	IC50 (mouse lymphoma (L-1210))	IC50 [10]	IC50 [11]	other results
C[C@@H]1O[C@@H](Oc2c(O)c3c(c4cccnc24)C(=O)c2ccccc2C3=O)[C@H](F)[C@H](O)[C@H]1N [Compound F, 5-(4-amino-2,4,6-trideoxy-2-fluoro-α-L-mannopyranosyloxy)-6-hydroxynaphtho[2,3-f]quinoline-7,12-dione]	–	–	–	–	–	–	–	–	IC50 ([1]; HL-60, 72 hours cultivation, Test Example 1, read-out: Concentration of test compound to inhibit the proliferation of cancer cells by 50 %, IC50): 0.11 µg/mL (≈ 0.251 µM); IC50 [2, 12]: 0.35 µg/mL (≈ 0.798 µM); anticancer activities against PC3, times higher than those of adriamycin [2, 13]: 2.6 times; IC50 [3, 12]: 0.34 µg/mL (≈ 0.776 µM); IC50 [4, 12]: 0.17 µg/mL (≈ 0.388 µM); anticancer activities against DLD-1, times higher than those of adriamycin [4, 13]: 11 times; IC50 ([5]; LNcap, 72 hours cultivation, Test Example 1, read-out: Concentration of test compound to inhibit the proliferation of cancer cells by 50 %, IC50): 0.67 µg/mL (≈ 1.53 µM); IC50 [6]: 2.92 µg/mL (≈ 6.66 µM); IC50 [7]: 2.46 µg/mL (≈ 5.61 µM); IC50 [8]: 3.48 µg/mL (≈ 7.94 µM); IC50 [9]: 2.25 µg/mL (≈ 5.13 µM)
C[C@@H]1O[C@@H](Oc2c(O)c3c(c4cccnc24)C(=O)c2ccccc2C3=O)[C@H](F)[C@H](OC(=O)CCN)[C@@H]1OC(=O)CCN [Compound P, 5-[3,4-di-O-(3-aminopropionyl)-2,6-dideoxy-2-fluoro-α-L-talopyranosyloxy]-6-hydroxynaphtho [2,3-f]quinoline-7,12-dione]	0.6 µg/mL (≈ 1.03 µM)	0.55 µg/mL (≈ 0.946 µM)	0.89 µg/mL (≈ 1.53 µM)	0.46 µg/mL (≈ 0.791 µM)	1.46 µg/mL (≈ 2.51 µM)	1.27 µg/mL (≈ 2.18 µM)	0.91 µg/mL (≈ 1.56 µM)	0.82 µg/mL (≈ 1.41 µM)	–
C[C@@H]1O[C@@H](Oc2c(O)c3c(c4cccnc24)C(=O)c2ccccc2C3=O)[C@@H](F)[C@H](OC(=O)CCN)[C@@H]1OC(=O)CCN [Compound Q, 5-[3,4-di-O-(3-aminopropionyl)-2,6-dideoxy-2-fluoro-α-L-galactopyranosyloxy]-6-hydroxynaphtho [2,3-f]quinoline-7,12-dione]	1.09 µg/mL (≈ 1.87 µM)	0.79 µg/mL (≈ 1.36 µM)	1.7 µg/mL (≈ 2.92 µM)	0.71 µg/mL (≈ 1.22 µM)	1.54 µg/mL (≈ 2.65 µM)	2.09 µg/mL (≈ 3.59 µM)	1.43 µg/mL (≈ 2.46 µM)	0.78 µg/mL (≈ 1.34 µM)	–
C[C@@H]1O[C@H](Oc2c(O)c3c(c4cccnc24)C(=O)c2ccccc2C3=O)[C@@H](F)[C@H](OC(=O)CCN)[C@@H]1O [Compound R, 5-[3-O-(3-aminopropionyl)-2,6-dideoxy-2-fluoro-β-L-galactopyranosyloxy]-6-hydroxynaphtho [2,3-f]quinoline-7,12-dione]	0.54 µg/mL (≈ 1.06 µM)	0.39 µg/mL (≈ 0.764 µM)	0.29 µg/mL (≈ 0.568 µM)	0.18 µg/mL (≈ 0.353 µM)	0.47 µg/mL (≈ 0.921 µM)	0.72 µg/mL (≈ 1.41 µM)	0.46 µg/mL (≈ 0.901 µM)	0.68 µg/mL (≈ 1.33 µM)	anticancer activity against PC3, times higher than that of adriamycin [2, 17]: 2.9 times; anticancer activity against DLD-1, times higher than that of adriamycin [4, 17]: 19 times
C[C@@H]1O[C@H](Oc2c(O)c3c(c4cccnc24)C(=O)c2ccccc2C3=O)[C@@H](F)[C@H](OC(=O)CCN)[C@@H]1OC(=O)CCN [Compound S, 5-[3,4-di-O-(3-aminopropionyl)-2,6-dideoxy-2-fluoro-β-L-galactopyranosyloxy]-6-hydroxynaphtho[2,3-f] quinoline-7,12-dione]	0.68 µg/mL (≈ 1.17 µM)	0.55 µg/mL (≈ 0.946 µM)	0.64 µg/mL (≈ 1.1 µM)	0.42 µg/mL (≈ 0.722 µM)	0.52 µg/mL (≈ 0.894 µM)	1.13 µg/mL (≈ 1.94 µM)	0.65 µg/mL (≈ 1.12 µM)	0.79 µg/mL (≈ 1.36 µM)	–
C[C@@H]1O[C@H](Oc2c(OC(=O)CCN)c3c(c4cccnc24)C(=O)c2ccccc2C3=O)[C@@H](F)[C@H](OC(=O)CCN)[C@@H]1OC(=O)CCN [Compound T, 5-[3,4-di-O-(3-aminopropionyl)-2,6-dideoxy-2-fluoro-β-L-galactopyranosyloxy)-6-(3-aminopropionyloxy)-naphtho[2,3-f]quinoline-7,12-dione]	0.78 µg/mL (≈ 1.2 µM)	0.65 µg/mL (≈ 0.996 µM)	0.15 µg/mL (≈ 0.23 µM)	0.45 µg/mL (≈ 0.69 µM)	0.57 µg/mL (≈ 0.873 µM)	1.17 µg/mL (≈ 1.79 µM)	0.55 µg/mL (≈ 0.843 µM)	0.8 µg/mL (≈ 1.23 µM)	–
